In series [1] the test system is MSSA ATCC 29213. Nature of the series: Time-kill in nutrient-depleted CAMHB. Format: cell-based, S. aureus. Conditions: 24 hour time point, estimated fCmax. The method, then:
(§1) Nutrient-depleted CAMHB from each respective strain was prepared by 3 rounds of inoculation of CAMHB with exponential-phase bacteria, incubation overnight at 37° C. with rotation (225 rpm) and centrifugation (8000×g for 30 minutes) to remove bacteria. After the final round of inoculation, growth and centrifugation, the pH of the nutrient-depleted CAMHB was adjusted to pH=7.0 and the spent medium was filter-sterilized using a […] membrane (Corning Incorporated, Corning, N.Y.).
(§2) Nutrient-depleted CAMHB containing diluted antimicrobial agents was inoculated with stationary-phase bacteria from overnight cultures of the S. aureus strains at approximately 10^7 colony-forming units (CFU)/mL. Other experiments compared the killing of stationary- and exponential-phase S. aureus ATCC 29213 when inoculated into nutrient-depleted CAMHB containing the test agents. For assays involving daptomycin, nutrient-depleted CAMHB was supplemented with 50 μg/ml CaCl2 (8). All time-kill studies were performed in 96-well deep-well plates at 37° C. with rotation (225 rpm) in a total volume of 750 μL. Bacteria were enumerated by serial-dilution plating. Bacteriostatic and bactericidal activity of the antimicrobial agents were defined as a reduction in viable cell counts of <3 or ≥3 log at 24 hours relative to the starting inoculum, respectively (33). Experiments were repeated at least three times and produced similar results; results from one experiment are presented.

In series [2] the test system is S. aureus ATCC 29213. Nature of the series: Membrane depolarization, DiSC3(5) fluorescence. Format: cell-based. Conditions: 30 min. How it is done: Bacteria were grown overnight in CAMHB and sub-cultured the following day in CAMHB to exponential phase (OD600≈0.25). Exponential- and stationary-phase cells were washed in membrane assay buffer with or without 5 mM glucose, respectively, and resuspended at an OD600=0.25. DiSC3(5) was added to a final concentration of 1.5 μM and the solution was incubated in the dark at ambient temperature for 30 minutes to allow loading of the fluorescent dye into cell membranes. After the loading period, cells were diluted 50-fold (OD600=0.005) in depolarization buffer with or without glucose for exponential- or stationary-phase cells, respectively. Assays were initiated by the addition of antimicrobial agents over a range of concentrations and were monitored in real time by fluorescence spectroscopy (λex=612, λem=665) for a period of 30 minutes. […] Experiments were repeated three times and produced similar results; results from one assay are presented.

In series [3] the test system is S. aureus ATCC 29213. Nature of the series: Membrane permeability, SYTO-9/propidium iodide fluorescence. Format: cell-based. Conditions: 30 min. How it is done: For membrane permeability assays, bacteria were prepared identically as described above for the membrane depolarization assay with the exception that SYTO-9 and propidium iodide (Invitrogen Corporation) were added at 5 μM and 30 μM, respectively. Experiments were repeated three times and produced similar results; results from one assay are presented.

For series [4], the system named is S. aureus ATCC 29213. Nature of the series: Short duration (2 h) time-kill in membrane assay buffer. Format: cell-based. The settings on record: for killing over short time course: fCmax. How it is done: Short duration (2 h) time-kill studies were performed in membrane assay buffer (see below) to characterize the killing of S. aureus ATCC 29213 under conditions used in the membrane depolarization and permeability assays. Exponential- and stationary-phase S. aureus ATCC 29213 cells were diluted to an OD600=0.005 (approx 10^6 CFU/mL) in membrane assay buffer (10 mM HEPES-C1, pH 7.5, 50 μg/mL CaCl2) with or without 5 mM glucose, respectively. Experiments were initiated by the addition of antimicrobial agents at the indicated concentrations and bacteria were enumerated by serial-dilution plating.

In series [5] the test system is stationary-phase MRSA ATCC 43300. Nature of the series: Ultrastructure by transmission electron microscopy of thin sections. Format: cell-based, S. aureus. The settings on record: 3 hours in nutrient-depleted CAMHB; 1 μg/mL oritavancin, 16 μg/mL vancomycin. The method, then:
Bacteria were fixed in 2.5% glutaraldehyde to cross-link proteins and help preserve morphological structure. Prior to embedding, the samples were treated with fresh 2.5% (vol/vol) glutaraldehyde in HEPES buffer (pH, 6.8) for 2 hours. The samples were then post-fixed in 2.0% (wt/vol) osmium tetroxide, followed by en bloc-staining with 2.0% (wt/vol) uranyl acetate, as a heavy-metal stain, to add contrast to the cells. The cells were then dehydrated through a series of ethanol washes then embedded in LR White resin. Once polymerized by curing, each culture sample was thin sectioned and stained by uranyl acetate and lead citrate so as to view the internal cellular constituents and the juxtaposition of cell envelope layers such as the plasma membrane and cell wall. Transmission electron microscopy was used to view the thin sections using a Philips CM10 under standard operating conditions at 100 kV.

For series [6], the system named is MRSA ATCC 33591. Kind of series: MBEC system in vitro biofilm (MIC and MBEC). Format: cell-based, S. aureus. Conditions: for MBEC: 24-hour biofilm, 24 hours of exposure; for MIC: Staphylococcus aureus. The method, then: (§3) The commercially-available MBEC™ system (Innovotech; Edmonton, AB, Canada) was used following the manufacturer's protocol (17) to establish in vitro biofilms of S. aureus and to determine the minimal biofilm eradication concentration (MBEC) of oritavancin and comparator antimicrobial agents. The MBEC represents the concentration of antimicrobial agent required to sterilize the biofilm after 24 hours of exposure. The MBEC™ system also allows for the determination of the minimal inhibitory concentration (MIC) of the test agent against planktonic cells under the conditions of the biofilm assay.
(§4) 150 μL of bacterial inocula at 10^7 CFU/mL in tryptic soy broth was aliquoted into each well of an MBEC plate. Biofilms were established for 24 hours in a rotary incubator at 37° C. and 150 rpm. For experiments involving 72-hour biofilms, peg lids were transferred each day to 96-well plates containing 150 μL/well of fresh tryptic soy broth and incubated another 24 hours. Peg lids with established biofilms were washed once in sterile saline (200 μL/well) and then placed in plates containing antimicrobial agents diluted in CAMHB (200 μL/well). Antimicrobial agents were serially diluted in CAMHB in 96-well plates and peg lids were exposed for 24 hours or for the indicated times. Following antimicrobial challenge, peg lids were washed once in sterile saline then placed in recovery plates containing CAMHB (200 μL/well). The recovery plates were sonicated for 5 minutes in an ultrasonic sonicating bath (VWR Aquasonic model 550D) at the maximum setting then incubated for 24 hours and the MBECs recorded. MBECs were determined from at least three independent experiments; results represent the ranges of MBECs obtained. To enumerate the biofilm colony forming units (CFUs) on individual control pegs, pegs were broken off the lid using sterile forceps placed in 1 ml sterile saline, sonicated for 5 min and vortexed for 1 min at the highest setting. Bacteria were then enumerated by serial-dilution plating.
(§5) To prevent loss of oritavancin due to binding to vessel surfaces (3), the CLSI now recommends inclusion of 0.002% polysorbate-80 for oritavancin broth microdilution MIC determinations (9).

The test system of series [7] is MSSA ATCC 29213. Kind of series: MBEC system in vitro biofilm (MIC and MBEC). Format: cell-based, S. aureus. Conditions: for MBEC: 24-hour biofilm, 24 hours of exposure; for MIC: Staphylococcus aureus. The method, then: as §3, §4, §5
Series [8] concerns VRSA VRS5. Nature of the series: MBEC system in vitro biofilm (MIC and MBEC). Format: cell-based, S. aureus. The settings on record: for MBEC: 24-hour biofilm, 24 hours of exposure; for MIC: Staphylococcus aureus, VRSA. How it is done:
as §3, §4, §5

The test system of series [9] is exponentially-growing S. aureus (MSSA, MRSA, VRSA). Conditions: actively dividing cells; cited from earlier work.
For series [10] the following is noted: cited from earlier work; for estimated fCmax in plasma: human, in vivo, 200 mg.
The test system of series [11] is S. epidermidis ATCC 35984. Nature of the series: MBEC plate biofilm eradication, agents in combination. Format: cell-based. The source says: The following strains were used for in vitro biofilm studies: vancomycin (VAN)-susceptible Enterococcus faecalis ATCC 29212 (VSE), VAN-resistant E. faecalis ATCC 51299 (VanB VRE), E. faecium ATCC 51559 (VanA VRE), S. epidermidis ATCC 12228 and the slime-producing strain S. epidermidis ATCC 35984. Biofilms were established in MBEC™ Physiology & Genetics Assay plates (Innovotech; Edmonton, Canada).

Series [12] relates to MRSA ATCC 33591. Nature of the series: Time-kill in nutrient-depleted CAMHB. Format: cell-based, S. aureus. Conditions: stationary-phase, 24-hour incubation, fCmax. The method, then: as §1, §2
Series [13] concerns VRSA VRS5. Kind of series: Time-kill in nutrient-depleted CAMHB. Format: cell-based, S. aureus. Conditions: stationary-phase, 24-hour incubation, fCmax. How it is done: as §1, §2
Setting [14] is: oritavancin without polysorbate-80.
[15] abbreviates: planktonic cells shed from 24-hour peg biofilms, oritavancin without polysorbate-80, read-out: MIC.

In brackets after ≈: the same amount, converted by molar mass. Read-outs that look alike come from different tables or passages of the source.

In the case of `CN[C@H](CC(C)C)C(=O)N[C@H]1C(=O)N[C@@H](CC(N)=O)C(=O)N[C@H]2C(=O)N[C@H]3C(=O)N[C@H](C(=O)N[C@H](C(=O)O)c4cc(O)cc(O)c4-c4cc3ccc4O)[C@H](O)c3ccc(c(Cl)c3)Oc3cc2cc(c3O[C@@H]2O[C@H](CO)[C@@H](O)[C@H](O)[C@H]2O[C@H]2C[C@](C)(N)[C@H](O)[C@H](C)O2)Oc2ccc(cc2Cl)[C@H]1O` [Vancomycin, vancomycin], the “less killing activity against stationary-phase cells compared to exponential-phase cells” value in series [1] was “approx 2.4 log”. The “dissipation of membrane potential (DiSC3(5) fluorescence)” value in series [2] (exponential-phase cells) and in [2] (stationary-phase cells) was “no effect on membrane potential” in each case. Further, the “membrane permeability (SYTO-9 fluorescence)” value in [3] (exponential-phase cells) and in [3] (stationary-phase cells) was “no effect on fluorescence” throughout. The “killing over short time course” value in series [4] (exponential-phase cells) and in series [4] (stationary-phase cells) was “did not effect any change” throughout. Further, the septal mid-line staining entry in [5] is “evident”. For the same compound, the MBEC in series [6] (setting [14]) was no less than 128 µg/mL; in series [7] (setting [14]) it was greater than 128 µg/mL; in [8] (setting [14]) it was greater than 128 µg/mL. For the same compound, the MIC in series [6] (24 h) is 1 to 2 µg/mL (≈ 0.69 to 1.38 µM); in series [7] (24 h), 1 µg/mL (≈ 0.69 µM); in series [7] (72 h, read-out: planktonic MIC), 2 to 16 µg/mL (≈ 1.38 to 11 µM); in series [8] (24 h), greater than 128 µg/mL. Moreover, in series [9], the “time required to exert bactericidal activity” value was 24 h. Besides, the “estimated free trough concentration in plasma” value in series [10] (humans, standard dose (oritavancin 200 mg)) is 4 µg/mL.
With `COc1c(N2C[C@@H]3CCCN[C@@H]3C2)c(F)cc2c(=O)c(C(=O)O)cn(C3CC3)c12` [MOX, moxifloxacin], in series [11] (combination of ORI and MOX required for sterilization), the MBEC in combination stood at 4 mg/L.
Turning to `CO[C@H]1/C=C/O[C@@]2(C)Oc3c(C)c(O)c4c(O)c(c(/C=N/N5CCN(C)CC5)c(O)c4c3C2=O)NC(=O)/C(C)=C\C=C\[C@H](C)[C@H](O)[C@@H](C)[C@@H](O)[C@@H](C)[C@H](OC(C)=O)[C@@H]1C` [Rifampicin, rifampicin], the MBEC in series [6] (setting [14]) is 0.25 to 4 µg/mL; in series [7] (setting [14]) it was 4 µg/mL; in series [8] (setting [14]), 4 µg/mL. Further, the results for the MIC in series [6] (setting [15]), in series [7] (setting [15]) and in series [8] (setting [15]) were less than 0.03 µg/mL, less than 0.02 µg/mL and 0.03 to 0.06 µg/mL (≈ 0.0365 to 0.0729 µM), respectively. Further, the “estimated fCmax in plasma” value in series [10] was 2 µg/mL.
Regarding `CO[C@H]1/C=C/O[C@@]2(C)Oc3c(C)c(O)c4c(c3C2=O)C2=NC3(CCN(CC(C)C)CC3)NC2=C(NC(=O)/C(C)=C\C=C\[C@H](C)[C@H](O)[C@@H](C)[C@@H](O)[C@@H](C)[C@H](OC(C)=O)[C@@H]1C)C4=O` [RFB, rifabutin], the MBEC in combination in [11] (combination of ORI and RFB required for sterilization) is 0.125 mg/L.
For `CC(=O)NC[C@H]1CN(c2ccc(N3CCOCC3)c(F)c2)C(=O)O1` [Linezolid, linezolid], the “effect on bacterial cell numbers” value in series [12] and in series [13] was “no effect” in each case. Also, the MBEC in series [6] (setting [14]), in series [7] (setting [14]) and in [8] (setting [14]) was greater than 128 µg/mL each time. The MIC in series [6] (setting [15]) is 2 to 4 µg/mL (≈ 5.93 to 11.9 µM); in [7] (72-hour biofilms, read-out: planktonic MIC), 8 to 16 µg/mL (≈ 23.7 to 47.4 µM); in [7] (setting [15]) it was 8 µg/mL (≈ 23.7 µM); in series [8] (setting [15]) it was 4 to 8 µg/mL (≈ 11.9 to 23.7 µM).
`CCCCCCCCCC(=O)N[C@@H](Cc1c[nH]c2ccccc12)C(=O)N[C@H](CC(N)=O)C(=O)N[C@@H](CC(=O)O)C(=O)N[C@@H]1C(=O)NCC(=O)N[C@@H](CCCN)C(=O)N[C@@H](CC(=O)O)C(=O)N[C@H](C)C(=O)N[C@@H](CC(=O)O)C(=O)NCC(=O)N[C@H](CO)C(=O)N[C@@H]([C@H](C)CC(=O)O)C(=O)N[C@@H](CC(=O)c2ccccc2N)C(=O)O[C@@H]1C` [Daptomycin, daptomycin]: the “dissipation of membrane potential (DiSC3(5) fluorescence)” value is recorded as “small effect” in series [2] (exponential-phase cells) and “did not effect changes” in [2] (stationary-phase cells). Moreover, the “membrane permeability (SYTO-9 fluorescence)” value is on record as “loss of fluorescence” in series [3] (exponential-phase cells) and “no effect” in series [3] (stationary-phase cells). Moreover, the “killing over short time course” value in series [4] (exponential-phase cells) is “Rapid killing”. The “reduction in CFU” value in [4] (stationary-phase cells, within the 2-hour time period, oritavancin at fCmax 800, daptomycin at fCmax) stood at 0.7 log. Moreover, the “estimated fCmax in plasma” value in [10] was 4 µg/mL.

Values taken from patent US10201587B2, “Methods of inhibiting and treating biofilms using glycopeptide antibiotics” (MELINTA THERAPEUTICS, INC., priority 2008, dated 2019).
